The values below come from patent US9861601B2 (The Board of Trustees of the Leland Stanford Junior …, priority 2012, dated 2018).

For assay [1], the target named is T1, Recombinant human LTA4H (Homo sapiens, UniProt P09960).
T1 sequence (P09960 1-611): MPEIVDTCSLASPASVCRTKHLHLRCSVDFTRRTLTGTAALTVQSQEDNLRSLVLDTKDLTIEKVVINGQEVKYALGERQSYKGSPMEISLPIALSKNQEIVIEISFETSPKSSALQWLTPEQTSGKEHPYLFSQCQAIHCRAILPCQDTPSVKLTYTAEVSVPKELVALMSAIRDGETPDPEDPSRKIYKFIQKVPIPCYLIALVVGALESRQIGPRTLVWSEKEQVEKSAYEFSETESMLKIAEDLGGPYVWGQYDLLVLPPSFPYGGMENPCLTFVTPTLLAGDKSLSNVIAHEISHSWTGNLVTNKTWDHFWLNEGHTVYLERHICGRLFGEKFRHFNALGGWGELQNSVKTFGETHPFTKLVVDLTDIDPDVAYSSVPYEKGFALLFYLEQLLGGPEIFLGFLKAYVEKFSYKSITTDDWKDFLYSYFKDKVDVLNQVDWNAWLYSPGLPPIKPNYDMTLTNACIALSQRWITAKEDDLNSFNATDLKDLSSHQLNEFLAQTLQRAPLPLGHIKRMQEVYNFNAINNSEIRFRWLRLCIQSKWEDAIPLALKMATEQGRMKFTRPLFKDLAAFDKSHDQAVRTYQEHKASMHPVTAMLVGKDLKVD
In words: In vitro epoxide hydrolase activity assay (LTB4 EIA readout). The format is biochemical. To be noted: LTA4 substrate 0.13 μM. How it is done: The LTA4H inhibitory activity of certain compounds in this invention was measured using an in vitro epoxide hydrolase activity assay. In this assay, an LTA4 substrate was first prepared from the methyl ester of LTA4 (Cayman Chemical), which was treated under nitrogen with […] of NaOH, at room temperature, for 40 min. The LTA4 substrate in its free acid form was kept frozen at −80° C. until use. Recombinant human LTA4H (36 ng) was incubated with various concentrations of test compounds for 10 min. at room temperature in assay buffer (0.1 M potassium phosphate, pH 7.4, 5 mg/ml fatty acid-free bovine serum albumin) in a volume of 200 μl. Then, the mixture was incubated with 25 μl of LTA4 substrate (final concentration, 40 ng/ml, 0.13 μM; final volume, 225 μl) for 30 min. at room temperature. The assay was terminated by diluting 20-fold with assay buffer. LTB4 production from each reaction was then assayed using the LTB4 EIA kit (catalog no. 520111, Cayman Chemical). The concentration of compound required for half-maximal inhibition of recombinant enzyme activity (IC50) was calculated by nonlinear regression using GraphPad Prism 4.0 (GraphPad Software Inc), one-site binding competition.

Assay [2] relates to athymic rat model of PAH. Kind of assay: SU5416 athymic nude rat model of PAH (PH). The format is in vivo. As to conditions: for reversal of established PH / PH-related death: treatment started 21 days (3 wk) after SU5416, doses as in b355, assessed at wk 5. Here is the method:
In the model, PH was first initiated by a single injection of a VEGFR2 inhibitor, SU5416, and monitored by weekly echocardiography. Survival of the animals was recorded on daily basis. […] After 5 weeks (day 35), animals were sacrificed after right heart catheterization. […] Oral availability of ubenimex was determined by pharmacokinetic analysis.
The athymic nude rat model is an accepted model of severe PAH associated with immune dysregulation. Athymic nude rats (rnu/rnu) (Charles River Laboratories) were used for these studies. Six to eight week old animals were injected subcutaneously (s.c.) with a single dose of either SU5416 (SU) (10 mg/kg) dissolved in DMSO or DMSO (vehicle) alone. All animals were maintained in normoxic conditions. PH progression was monitored by weekly echocardiography (ECHO). Survival of rats was monitored out to wk 5 when they underwent a terminal right heart catheterization. PH was confirmed by ECHO. Hemodynamic measurements included right ventricular systolic pressure (RVSP) determined by right heart catheterization and right ventricular hypertrophy (RVH) determined by the weight ratio of RV/(LV+S) (right ventricle/(left ventricle+septum)).
All animals were sacrificed 5 wk after SU administration for hemodynamic measurements. […] Serial improvement was observed from the time of treatment initiation. Interval improvement was manifested by decreasing RV wall thickness and increasing pulmonary artery acceleration times (PAAT) after initiation of treatment. […] Here again, the compound of Formula III was notable: treatment with that compound yielded an RVH ratio of 0.29. RVH for healthy rats is generally about 0.25.

For assay [3], the system named is Rat pulmonary arterial endothelial cells (PAECs). Kind of assay: PAEC apoptosis assay (Annexin V flow cytometry, with or without macrophage co-culture). The format is cell-based. To be noted: for PAEC apoptosis induced by exogenous leukotriene (no macrophages): 24 hrs. How it is done:
The transwell assay involved co-culturing IMØs from several sources with PAECs. IMØs, from (A) DMSO and (B) SU rat lungs, were isolated and co-cultured with PAECs. After 24 hr, PAEC apoptosis was analyzed by flow cytometry for Annexin V expression. To isolate the specific impact of LTB4 generated by 5-LO activation further, IMØs were extracted from healthy rats and transfected with S271E to produce a phosphorylation mimic mutant or with S271A to produce a dephosphorylation mimic mutant. Vector and WT 5-LO DNA-transfected IMØs were used as controls. Flow cytometry was performed on PAECs co-cultured with IMØs extracted from healthy rats and transfected with (C) vector as control, (D) WT 5-LO, (E) S271A, (F) S271E (G) S271E mutant treated with n-acetyl cysteine (NAC) (200 nM) or (H) S271A mutant treated with LTB4 (100 nM). PAECs were treated with (I) exogenous LTB4 (200 nM) or (J) LTB4 (200 nM) with a BLT1 inhibitor U75302 […] (n=3 experiments per group). Representative flow cytometry plots are shown, n=3 experiments per group.
The results reported in this example were obtained using the following PAEC apoptosis assay. Rat pulmonary arterial endothelial cells (PAECs) were co-cultured with macrophages (+/− transfection) for 24 hr. They were then washed once with PBS and once with binding buffer from the Annexin V Apoptosis Detection Kit (88-8007; eBioscience). Cells were then suspended in binding buffer at 1-5×10^6/ml. 5 μl of APC conjugated Annexin V was added to 100 μl of cells, which were then incubated at room temperature for 15 min. Five μl of propidium iodide staining solution were added 5 min. prior to flow cytometry analysis on an LSRFortessa cell analyzer (BD Biosciences).
(In general: A flow cytometer gives signals particle by particle.)

SMILES strings stand for the structures. Entries after “also recorded” stand apart in the source; their conditions may differ.

As for `CC(=O)N[C@H](Cc1ccc(O)cc1)[C@H](O)C(=O)N[C@@H](CC(C)C)C(=O)O`, the IC50 in assay [1] was found to be 13 ± 4 nM.

Turning to `COC(=O)[C@H](CC(C)C)NC(=O)[C@@H](OC(C)=O)[C@@H](Cc1ccccc1)NC(C)=O` [di-acyl ubenimex, (S)-methyl 2-((2S,3R)-3-acetamido-2-acetoxy-4-phenylbutanamido)-4-methylpentanoate], the IC50 in assay [1] amounted to 25 ± 18 nM.

`CC(c1cc2ccccc2s1)N(O)C(N)=O` (centres unmarked) [zileuton, 1-[1-(1-benzothiophen-2-yl)ethyl]-1-hydroxyurea]: the “reversal of established PH / PH-related death” value in assay [2] is “mildly attenuated pressures and prevented death”.

`Oc1ccc(C=Cc2cc(O)cc(O)c2)cc1` [resveratrol]: in assay [2], the “reversal of established PH / PH-related death” value was “did not attenuate PH or improve survival”.

In the case of `CC(=O)N[C@@H](CS)C(=O)O` [n-acetyl cysteine], in assay [3] (NAC (200 nM)), the “PAEC apoptosis in co-culture with S271E mutant macrophages” value is on record as “no diminution of apoptosis”.

Take `O=C(NC1CCCCC1)NC1CCCCC1` [dicyclohexyl urea]: the “reversal of established PH / PH-related death” value in assay [2] is given as “relatively less therapeutic”.

In the case of `CC(=O)N[C@H](Cc1ccc(O)cc1)[C@H](OC(C)=O)C(=O)N[C@@H](CC(C)C)C(=O)O`, in assay [1], the IC50 stood at 43 ± 11 nM.

With `CCCCC/C=C\C\C=C/C=C/C=C/[C@@H](SC[C@H](N)C(=O)O)[C@@H](O)CCCC(=O)O` [LTE4, leukotriene E4], in assay [3], the “PAEC apoptosis induced by exogenous leukotriene (no macrophages)” value (“PAEC apoptosis induced … (no macrophages)” for short) is reported as “did not induce PAEC apoptosis”.

With `COC(=O)[C@H](CC(C)C)NC(=O)[C@@H](O)[C@@H](Cc1ccc(Br)cc1)NC(C)=O` [mono-acyl ubenimex bromide, (S)-methyl 2-((2S,3R)-3-acetamido-4-(4-bromophenyl)-2-hydroxybutanamido)-4-methylpentanoate], the IC50 in assay [1] was 93 ± 16 nM.

Turning to `CC(=O)Oc1ccccc1C(=O)O` [aspirin], in assay [2], the “reversal of established PH / PH-related death” value is recorded as “relatively less therapeutic”.

For the compound `CC(C)C[C@H](NC(=O)[C@@H](O)[C@H](N)Cc1ccc(Oc2nc3ccccc3s2)cc1)C(=O)O` [Formula III, (S)-2-((2S,3R)-3-amino-4-(4-(benzo[d]thiazol-2-yloxy)phenyl)-2-hydroxybutanamido)-4-methylpentanoic acid], in assay [1], the IC50 was 10 ± 5 nM. Further, the RVSP in assay [2] (1 mg/kg p.o. daily, sacrificed 5 wk after SU) turned out to be 28 mm Hg. In assay [2] (1 mg/kg p.o. daily, sacrificed 5 wk after SU, RV/(LV+S)), the RVH ratio is recorded as 0.29.

As for `CCCCC/C=C\C\C=C/C=C/C=C/[C@@H](SC[C@H](NC(=O)CC[C@H](N)C(=O)O)C(=O)NCC(=O)O)[C@@H](O)CCCC(=O)O` [LTC4, leukotriene C4], in assay [3], the “PAEC apoptosis induced … (no macrophages)” value was “did not induce PAEC apoptosis”.

On to `CCCCCCCCCCCCC/C=C/[C@@H](O)[C@@H](N)COP(=O)(O)O` [SIP, sphingosine-1-phosphate], for which, in assay [3] (exogenously added), the “rescue of PAECs co-cultured with S271E cells” value is “able to rescue”.

Take `COC(=O)[C@H](CC(C)C)NC(=O)[C@@H](O)[C@@H](Cc1ccccc1)NC(C)=O` [mono-acryl ubenimex, (S)-methyl 2-((2S,3R)-3-acetamido-2-hydroxy-4-phenylbutanamido)-4-methylpentanoate]: the half-inhibitory concentration (IC50) in assay [1] turned out to be 94 ± 21 nM.

For the compound `COC(=O)[C@H](CC(C)C)NC(=O)[C@@H](OC(C)=O)[C@@H](Cc1ccc(Br)cc1)NC(C)=O` [di-acyl ubenimex bromide, (S)-methyl 2-((2S,3R)-3-acetamido-2-acetoxy-4-(4-bromophenyl)butanamido)-4-methylpentanoate], the IC50 in assay [1] amounted to 40 ± 22 nM.

`CCCCC/C=C\C[C@@H](O)/C=C/c1cccc(C[C@@H](O)CCCCO)n1` [U75302]: in assay [3] (LTB4 (200 nM) with U75302, 24 hr), the “LTB4-mediated PAEC apoptosis” value is listed as “prevented LTB4-mediated apoptosis”.

Take `O=C(O)C1CCN(Cc2ccc(Oc3nc4ccccc4s3)cc2)CC1` [JNJ26993135, 1-[4-(benzothiazol-2-yloxy)-benzyl]-piperidine-4-carboxylic acid]: in assay [2] (SU-treated athymic rats), the “accumulation of 5-LO expressing periarteriolar macrophages and B cells in lungs” value is recorded as “significantly reduced”; the “in vivo PAEC apoptosis” value is given as “reduced”. In addition, the “reversal of established PH / PH-related death” value in assay [2] was “efficacious in reversing severe PH and preventing PH-related death; also recorded: reverses established PH”.

As for `CCCCC/C=C\C\C=C/C=C/C=C/[C@@H](SC[C@H](N)C(=O)NCC(=O)O)[C@@H](O)CCCC(=O)O` [LTD4, leukotriene D4], the “PAEC apoptosis induced … (no macrophages)” value in assay [3] is on record as “did not induce PAEC apoptosis”.

Turning to `COC(=O)[C@H](CC(C)C)NC(=O)[C@@H](O)[C@H](N)Cc1ccccc1` [ubenimex methy ester, (S)-methyl 2-((2S,3R)-3-amino-2-hydroxy-4-phenylbutanamido)-4-methylpentanoate], the IC50 in assay [1] came out at 54 ± 13 nM.

One may read the IC50 as the concentration that gives 50% inhibition.
